Test results as given in patent US20250115628A1, “FLUORINATED FLUOROPHORES” (HOWARD HUGHES MEDICAL INSTITUTE, priority 2023, published 2025).
Read-outs that look alike come from different tables or passages of the source.

Experiments:
[1] = fluorescein derivatives; 0.1 N NaOH; data from the inventors' published work; cited from earlier work
[2] = fluorescein derivatives; 0.1 N NaOH; data from the inventors' published work; cited from earlier work; remark: listed apart in the source
[3] = Hill coefficient; data from the inventors' published work; cited from earlier work
[4] = test system: JM8·N4 mouse embryonic stem cells stably expressing histone H2B-HaloTag® fusion proteins; assay: Single-particle tracking (SPT) experiments; format: cell-based; settings: for performance in SPT experiments compared with 1HTL and 89HTL: HaloTag® ligands, 50 Hz imaging
Protocol: SPT experiments were carried out as previously described.^84 JM8·N4 mouse embryonic stem cells (ESCs) stably expressing histone H2B-HaloTag® fusion proteins were generated by co-expressing the PiggyBac EF1a-H2B-HaloTag®-IRES-Neo vector with the super piggyBac transposase as described previously,85 followed by G418 selection (500 μg/mL) for 2 weeks and verified by FACS sorting/confocal imaging staining with JF549-HaloTag® ligand (84HTL; 100 nM, 30 min). Cells were seeded on 25 mm #1.5 coverglass pre-cleaned with KOH and ethanol and coated with iMatrix-511 (TaKaRa #T304) or rhLaminin-521 (Gibco™ #A^29248) according to the manufacturers' instruction. All live-cell imaging experiments were conducted using an ESC imaging medium composed of FluoroBrite DMEM (ThermoFisher) plus 15% v/v ESC-qualified FBS, 1× GlutaMax, 1×NEAA, 0.1 mM 2^−mercaptoethanol, and LIF. For comparison of 59HTL and 89HTL (FIG. 13E, 13F) the histone H2B-HaloTag® ESCs were stained with 5 nM 59HTL for 1 h or 0.1 nM 89HTL for 15 min at 37° C. with 5% (v/v) CO2 to achieve sparse labeling with approximately equal localizations per region of interest (ROI), and then washed with dye-free media 3× for 30 min each wash For comparison of 40HTL, 44HTL, 1HTL, or 89HTL (FIG. 12A-12G) the histone H2B-HaloTag® ESCs were stained with 1 nM of HaloTag® ligands for 15 min at 37° C. with 5% (v/v) CO2 to achieve sparse labeling, and then washed with dye-free media 3× for 30 min each wash.
To quantify the brightness and photostability of the HaloTag® ligands, labeled cells were mounted onto a high speed motorized Nikon Eclipse Ti-E inverted microscope equipped with the following: 100× Apo TIRF 1.49 NA objective with a correction collar; four excitation laser lines (405/488/561/642 nm) and matching TIRF quad cube (405/488/561/640 nm reflection bands); automatic TIRF illuminator with motorized X axis and manual Y axis for beam positioning and focus: perfect focus 3 system; Triple DU-897 iXon Ultra EMCCD cameras on a Cairn Tri-cam emission splitter with filters 525/50 (GFP) 600/50 (RFP) and 705/72 (Cy5); humidified incubation chamber maintained at 37° C. with 5% v/v CO2 (Tokai Hit). SPT was performed at 100 Hz for the comparison of 59HTL and 89HTL (FIG. 13E, 13F) and 50 Hz for the comparison of 40HTL, 44HTL, 1HTL, or 89HTL (FIG. 12A-12G); the imaging session was performed for ˜5000 frames using 100% of maximal excitation power (˜120 mW at the fiber end before the TIRF unit). […] For the comparison of HaloTag® ligands 59HTL and 89HTL (FIG. 13E, 13F) and the comparison of compounds 40HTL, 44HTL, 1HTL, and […] (FIG. 12A-12G), the fluorophores were excited with a 647 nm laser. To minimize drift during imaging, the incubation chamber was fully thermally equilibrated, and all imaging was conducted in an isolated ultra-clean room with minimal mechanical vibrations. The microscope, laser lines, and camera integration were controlled using the Nikon NIS-Elements software. Cells with obvious movement during acquisition were removed from further analysis. SMT analysis was based on multiple target tracing 86 (MTT) with tracking parameters similar to previous work.^84 For SPT brightness (photon counts/molecule/s), intensity values from sparsely-labeled molecules were analyzed. For the comparison of HaloTag® ligands 59HTL and 89HTL (FIG. 13E, 13F): n=147,298 single-molecule events using 59HTL; n=100,392 single-molecule events using 89HTL. […]

[5] = General UV-vis and fluorescence spectroscopy; format: physicochemical; settings: rhodamine derivatives; 10 mM HEPES, pH 7.3
Protocol: Spectroscopy was performed using 1^−cm path length, 3.5^−mL quartz cuvettes or 1^−cm path length, 1.4^−mL semi-micro quartz cuvettes from Starna Cells. All measurements were taken at ambient temperature (22±2° C.). Absorption spectra were recorded on a Cary Model 100 spectrometer (Agilent), and fluorescence spectra were recorded on a Cary Eclipse fluorometer (Varian). The spectra, maximum absorption wavelength (labs), extinction coefficient at λabs (8), and maximum emission wavelength (em) were measured in 10 mM HEPES, pH 7.3 buffer (rhodamines and Malachite Green derivative 49) or 0.1 M NaOH (fluoresceins); the reported values for e are averages (n=3). Normalized spectra are shown for clarity.

[6] = Determination of KL-Z (lactone-zwitterion equilibrium constant); format: physicochemical; parameters: key: KL-Z = (εdw/εmax)/(1−εdw/εmax); εdw measured in 1:1 dioxane/water; settings: rhodamine derivatives; 1:1 dioxane:H2O
Protocol: KL-Z was calculated using the following equation:^16, 18 KL-Z=(εdw/εmax)/(1−εdw/εmax). εdw is the extinction coefficient of the dyes in a 1:1 (v/v) dioxane/water solvent mixture; this dioxane/water mixture was chosen to give the maximum spread of KL-Z values across all classes of rhodamines.^18 εmax refers to the maximal extinction coefficients measured in different solvent mixtures empirically determined depending on dye type: 0.1% v/v trifluoroacetic acid in ethanol for 18, 20, 29, 34, 36, 70-72, 81-83, 93-95, 99-102, and 104; 0.1% v/v trifluoroacetic acid in 2,2,2^−trifluoroethanol for all other rhodamine variants. A accurate determination of low KL-Z values is complicated by the relatively poor sensitivity of absorbance measurements.

[7] = Quantum yield determination; format: physicochemical; settings: rhodamine derivatives; 10 mM HEPES, pH 7.3
Protocol: All reported absolute fluorescence quantum yield values (Φf) were measured using a Quantaurus-QY spectrometer (model C11374, Hamamatsu). This instrument uses an integrating sphere to determine photons absorbed and emitted by a sample. Measurements were carried out using dilute samples (A<0.1), and self-absorption corrections were performed using the instrument software.^81

[8] = test system: U2OS cells stably expressing HaloTag®-histone H2B fusion protein; assay: Loading experiments with NIR-excited HaloTag® ligands (nuclear fluorescence); format: cell-based; settings: 200 nM; live cells expressing HaloTag®-histone H2B
Protocol: U2OS cells (ATCC) and U2OS cells stably expressing an integrated HaloTag®-histone H2B fusion protein (U2OS·H2B·HaloTag®) were cultured in Dulbecco's modified Eagle medium (DMEM, phenol red-free; Life Technologies) supplemented with 10% (v/v) fetal bovine serum (FBS, Life Technologies), 1 mM GlutaMAX (Life Technologies) and maintained at 37° C. in a humidified 5% (v/v) CO2 environment. These cell lines undergo regular mycoplasma testing by the Janelia Cell Culture Facility. For mitochondrial imaging using the HaloTag® system, U2OS cells were transiently transfected using nucleofection (Lonza) with a plasmid constitutively expressing a HaloTag®-TOMM20 fusion protein, which is located on the outer mitochondrial membrane. For 4^−color imaging, U2OS·H2B·HaloTag® stable cells were transiently transfected by nucleofection with plasmids constitutively expressing a SNAP-tag®-TOMM20 fusion protein, and a GFP-SKL (SKL: serine-lysine-leucine) fusion protein, a prototypical peroxisomal matrix targeting signal. All labeled cells were imaged 18-24 h post-transfection or post-plating.
For loading curve experiments (FIG. 15C), U2OS·H2B·HaloTag® stable cells were incubated with 200 nM HaloTag® ligand conjugated dyes (31HTL, 36HTL, 38HTL, 104HTL, 106HTL, 107HTL, and 108HTL) for 0-4 h at 37° C., washed 3× with dye-free media then fixed with 4% paraformaldehyde in 0.1 M phosphate buffer, pH 7.4 for 15 min at 37° C. Confocal imaging was performed on a Leica Stellaris with an HC PL APO 40×/1.25 glycerol objective using the tunable white light laser (WLL) to excite dyes at their λabs in constant power mode. Fluorescence was quantified as the integrated density of nuclear signals in single-plane images analyzed in FIJI;^82 n=100 nuclear signals per compound.

| Compound | Φf [1] | ε [2] | λabs [2] | λem [2] | ηH [3] | cellular intensity [8] | also measured |
| --- | --- | --- | --- | --- | --- | --- | --- |
| CC1(C)c2cc(O)c(F)cc2C2(OC(=O)c3ccccc32)c2cc(F)c(O)cc21 [compound 78, Virginia Orange] | 0.40 | 90,900 M^−1cm^−1 | 555 nm | 581 nm | 1.46 | – | – |
| [2H]C1([2H])N(c2ccc3c(c2)C(C)(C)C2=CC(=[N+]4C([2H])([2H])C([2H])([2H])C([2H])([2H])C4([2H])[2H])C=CC2=C3c2c(F)c(F)c(F)c(F)c2C(=O)[O-])C([2H])([2H])C([2H])([2H])C1([2H])[2H] [compound 40, JFX637] | – | – | – | – | – | – | performance in SPT experiments compared with 1HTL and 89HTL [4]: comparable performance; ε [5]: 147,000 M^−1cm^−1; λabs [5]: 637 nm; KL-Z [6]: 6.12; Φf [7]: 0.56 |
| CC1=CC(C)(C)Nc2cc3c(cc21)C(c1c(F)c(C(=O)NCCOCCOCCCCCCCl)c(F)c(F)c1C(=O)O)=c1cc2c(cc1[Si]3(C)C)=NC(C)(C)C=C2C [36HTL, 4^−((2^−(2^−((6^−Chlorohexyl)oxy)ethoxy)ethyl)carbamoyl)-2,3,5^−trifluoro-6-(2,2,4,8,10,10,13,13^−octamethyl-2,10,11,13^−tetrahydrosilino [3,2^−g:5,6^−g′]diquinolin-6^−ylium-6(1H)-yl)benzoate] | – | – | – | – | – | relatively low intensity | – |
| CC1=CC(C)(C)N(C)c2cc3c(cc21)C(c1c(F)c(C(=O)NCCOCCOCCCCCCCl)c(F)c(F)c1C(=O)[O-])=c1cc2c(cc1[Si]3(C)C)=[N+](C)C(C)(C)C=C2C [38HTL, 4^−((2^−(2^−((6^−Chlorohexyl)oxy)ethoxy)ethyl)carbamoyl)-2^−(1,2,2,4,8,10,10,11,13,13-decamethyl-2,10,11,13^−tetra-hydrosilino[3,2^−g:5,6^−g′]diquinolin-6^−ylium-6(1H)-yl)-3,5,6-trifluorobenzoate] | – | – | – | – | – | relatively low intensity | – |
| C[Si]1(C)c2cc(O)c(F)cc2C2(OC(=O)c3c(F)c(F)c(F)c(F)c32)c2cc(F)c(O)cc21 [compound 80] | 0.32 | 67,900 M^−1cm^−1 | 617 nm | 635 nm | 1.50 | – | – |
| C[Si]1(C)c2cc(O)c(F)cc2C2(OC(=O)c3ccccc32)c2cc(F)c(O)cc21 [compound 79] | 0.42 | 60,900 M^−1cm^−1 | 596 nm | 618 nm | 1.30 | – | – |
| C[Si]1(C)c2cc(O)ccc2C2(OC(=O)c3ccccc32)c2ccc(O)cc21 [compound 75] | 0.53 | 93,000 M^−1cm^−1 | 579 nm | 599 nm | 1.69 | – | – |
| CC1(C)c2cc(O)ccc2C2(OC(=O)c3ccccc32)c2ccc(O)cc21 [compound 74, carbofluorescein] | 0.62 | 108,000 M^−1cm^−1 | 544 nm | 567 nm | 1.65 | – | – |
| JFX650-HaloTag® ligand [89HTL, reference compound] | – | – | – | – | – | – | SPT localizations over time ([4]; 100 Hz imaging): relatively rapid bleaching |
| CC1=CC(C)(C)N(C)c2cc3c(cc21)C(c1cc(C(=O)NCCOCCOCCCCCCCl)ccc1C(=O)[O-])=c1cc2c(cc1[Si]3(C)C)=[N+](C)C(C)(C)C=C2C [104HTL, 4^−((2-(2^−((6^−Chlorohexyl)oxy)ethoxy)ethyl)carbamoyl)-2^−(1,2,2,4,8,10,10,11,13,13^−decamethyl-2,10,11,13^−tetra-hydrosilino[3,2^−g:5,6^−g′]diquinolin-6^−ylium-6(1H)-yl)benzoate] | – | – | – | – | – | relatively low intensity | – |
| CN1CCc2cc3c(cc21)[Si](C)(C)c1cc2c(cc1=C3c1c(F)c(C(=O)NCCOCCOCCCCCCCl)c(F)c(F)c1C(=O)[O-])CC[N+]=2C [108HTL, SiRF712-HaloTag® ligand] | – | – | – | – | – | second highest cellular intensity | – |
| CC1(C)C2=CC(=[N+]3CCC3)C=CC2=C(c2c(F)c(F)c(F)c(F)c2C(=O)[O-])c2ccc(N3CCC3)cc21 [compound 44, JF632] | – | – | – | – | – | – | performance in SPT experiments compared with 1HTL and 89HTL [4]: comparable performance; ε [5]: 139,000 M^−1cm^−1; λabs [5]: 632 nm; λem [5]: 649 nm; KL-Z [6]: 3.59; Φf [7]: 0.54 |
